These are literature values, as cited in US20220362140A1, “Novel Dental Care and Cleansing Composition” (GROUP PHARMACEUTICALS, priority 2020, published 2022).

The conditions of this data set: much higher concentration.

Turning to `O=BO[O-].[Na+]` [Sodium perboarate], the “Concentration that is toxic” value is on record as 25%.
